Measurements taken from patent publication US8592449B1, “Radiolabelled phenylimidazole-based ligands” (H. Lundbeck A/S, priority 2010, dated 2013).

Tested on: PDE10A
Settings: monkey, PET
Procedure: The monkey is sedated with ketamin (approximately 10 mg/kg), weighed, and maintained on a constant infusion of ketamin 15 mg/kg/h during transport. During transport the monkey is monitored by pulse oximetry and supported by oxygen. One venous catheter is applied for tracer administration and one venous catheter for blood radioactivity and PK sampling. Propofol is administered until the animal is anesthetized enough to intubate. After intubation the animal is maintained on sevoflurane inhalation anesthesia and artificial ventilation.
Blood samples (0.2 mL for radioactivity determination are taken at 0.5, 1, 3, 5, 10, 15, 20, 30, 45, 60 and 90 minutes after injection. The samples are labeled with time, date, sampling time in relation to injection, and project number.
PET scanning and arterial blood sampling is commenced upon start of the administration of the radiolabelled compound.

Q: For `Cc1ccc(C)n2nc(CCc3nc(-c4ccccc4)cn3[11CH3])nc12` [[11C]Lu AE92686, 5,8-dimethyl-2-[2-([^11C-1-methyl]-4-phenyl-1H-imidazol-2-yl)-ethyl]-[1,2,4]triazolo[1,5-a]pyridine], which concentration in cerebellum (cerebellum (very low level of PDE10A)) is on record?
A: The concentration in cerebellum was “low”.

Q: What about the “uptake and retention in striatum” value (striatum versus other brain regions) of the same molecule?
A: Its value is “highest uptake and retention”.

Q: What about the brain entry (i.v. bolus) of the same molecule?
A: The brain entry was “readily enters the brain”.

Q: What about the “time of peak regional tissue concentrations in brain” value (i.v. bolus, post injection) of the same molecule?
A: The value was 10 to 15 min.
